The record followed here is patent US20140315889A1, “HYDROXAMATE DERIVATIVES FOR HDAC INHIBITOR, AND THE PHARMACEUTICAL COMPOSITION COMPRISING THEREOF” (CHONG KUN DANG PHARMACEUTICAL CORP., priority 2011, published 2014).

Where two headings read alike, the source gives them in different places.

The target in data set [1] is T1, HDAC7 (Homo sapiens, UniProt Q8WUI4).
T1 sequence (Q8WUI4 1-952): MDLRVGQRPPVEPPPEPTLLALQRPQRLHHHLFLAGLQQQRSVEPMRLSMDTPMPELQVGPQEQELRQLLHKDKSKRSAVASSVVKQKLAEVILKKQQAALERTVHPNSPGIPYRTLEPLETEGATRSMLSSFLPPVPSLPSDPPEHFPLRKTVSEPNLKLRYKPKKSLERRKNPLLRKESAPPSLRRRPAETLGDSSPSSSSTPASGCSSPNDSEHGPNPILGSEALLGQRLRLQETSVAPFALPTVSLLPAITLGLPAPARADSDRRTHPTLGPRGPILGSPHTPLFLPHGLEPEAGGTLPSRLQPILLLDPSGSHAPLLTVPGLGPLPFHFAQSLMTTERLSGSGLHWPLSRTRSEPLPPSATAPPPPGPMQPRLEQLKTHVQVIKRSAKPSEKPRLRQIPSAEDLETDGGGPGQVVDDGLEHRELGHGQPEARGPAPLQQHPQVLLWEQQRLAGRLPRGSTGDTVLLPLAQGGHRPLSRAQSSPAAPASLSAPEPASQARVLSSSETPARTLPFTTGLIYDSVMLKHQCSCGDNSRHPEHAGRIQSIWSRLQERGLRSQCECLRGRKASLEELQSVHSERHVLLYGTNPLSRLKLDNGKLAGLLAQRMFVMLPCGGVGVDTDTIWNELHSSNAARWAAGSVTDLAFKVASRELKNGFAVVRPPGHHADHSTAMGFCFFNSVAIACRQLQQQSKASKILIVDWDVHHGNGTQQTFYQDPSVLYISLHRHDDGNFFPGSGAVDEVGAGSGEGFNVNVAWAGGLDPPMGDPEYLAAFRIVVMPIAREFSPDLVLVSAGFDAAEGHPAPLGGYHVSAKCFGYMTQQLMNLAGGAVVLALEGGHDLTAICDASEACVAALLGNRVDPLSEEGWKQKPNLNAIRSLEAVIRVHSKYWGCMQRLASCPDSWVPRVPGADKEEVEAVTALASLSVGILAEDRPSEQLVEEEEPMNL
As to the kind of experiment: HDAC enzyme activity test, HDAC7. The class given is biochemical. As to the method:
(§1) Then, 0.3 μg of enzyme and 10 μM of substrate per well were added, reacted at 30° C. for 60 minutes. Thereto, Fluor de Lys® Developer II (BML-KI176) was added and reacted for 30 minutes. […] From the data, the respective IC50 were calculated by GraphPad Prism 4.0 program.

Data set [2] deals with T2, Human recombinant HDAC1 (Homo sapiens, UniProt Q13547).
T2 construct: purchased Enzo Life Science Co. (named for the kit; assigned to the enzyme from the BML- catalogue prefix) BML-SE456
As to the kind of experiment: HDAC enzyme activity test, HDAC1. The class given is biochemical. As to the method: as §1

Data set [3] deals with HDAC5 (Homo sapiens, UniProt Q9UQL6). As to the kind of experiment: HDAC enzyme activity test, HDAC5. The class given is biochemical. The settings on record: Table 11, eleven HDAC isozymes; read-out: Inhibition ability (IC50) against HDAC5. As to the method: as §1
In data set [4] the target is T3, HDAC10 (Homo sapiens, UniProt Q969S8).
T3 sequence (Q969S8 1-669): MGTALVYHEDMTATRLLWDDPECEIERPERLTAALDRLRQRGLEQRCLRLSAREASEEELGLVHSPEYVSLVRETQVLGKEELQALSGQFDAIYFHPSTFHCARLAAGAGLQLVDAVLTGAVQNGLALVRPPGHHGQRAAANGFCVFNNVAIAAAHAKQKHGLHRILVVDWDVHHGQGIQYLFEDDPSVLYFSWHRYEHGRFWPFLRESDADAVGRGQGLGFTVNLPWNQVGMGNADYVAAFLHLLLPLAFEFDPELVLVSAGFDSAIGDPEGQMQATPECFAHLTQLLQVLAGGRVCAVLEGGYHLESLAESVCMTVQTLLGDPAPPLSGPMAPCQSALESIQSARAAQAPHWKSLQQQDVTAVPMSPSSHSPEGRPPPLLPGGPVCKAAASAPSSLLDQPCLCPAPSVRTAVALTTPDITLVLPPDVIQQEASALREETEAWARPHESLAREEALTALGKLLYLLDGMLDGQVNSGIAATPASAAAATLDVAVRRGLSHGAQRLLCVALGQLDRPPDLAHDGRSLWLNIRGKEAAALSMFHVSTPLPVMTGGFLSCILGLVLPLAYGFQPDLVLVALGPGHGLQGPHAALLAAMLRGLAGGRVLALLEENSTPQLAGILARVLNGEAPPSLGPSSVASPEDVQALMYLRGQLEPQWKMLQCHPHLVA
As to the kind of experiment: HDAC enzyme activity test, HDAC10. The class given is biochemical. The settings on record: Table 11, eleven HDAC isozymes; read-out: Inhibition ability (IC50) against HDAC10. On the procedure:
as §1

In data set [5] the test system is collagen-induced arthritis model. As to the kind of experiment: Effectiveness of compound 87 in a collagen-induced arthritis model. The class given is in vivo, DBA1J mice. The settings on record: for clinical score decreased, compared with the positive control group: vs ITF2357 50 mg/kg group. From the text: 7-week aged male DBA1J mice were used in the experiment. The animal facility was kept at constant temperature and constant humidity with a 12-hr dark/12-hr light cycle, and the animals were allowed to access food and water ad libitum. The animals were acclimated to the cage for 7 days.
Each arthritis-onset animals were selected and then promptly used in the experiments. The experimental animal groups consist of: • A. two vehicle-control groups administered with only vehicle via s.c. (subcutaneous injection) and p.o. (per oral), • B. a positive control group administered with ITF2357 of 50 mg/kg, and • C. two compound test groups administered with compound 87 in each doses of 10 and 50 mg/kg.
A solution of ITF2357 for administration was prepared using 0.5% methylcellulose as a vehicle. It was administered orally to the animals in a volume of 10 ml/kg once a day for 7 days. A solution of compound 87 for administration was prepared using DMSO as a vehicle just before administration. It was administered in a volume of 2 ml/kg via s.c. once a day for 7 days. Two vehicle-control groups were administered with only vehicle once a day for 7 days via s.c. and p.o. separately.
Bovine type 2 collagen (Chondrex) and complete Freund's adjuvant (Chondrex) are mixed in 1:1 to become an emulsion. Each 0.1 ml of the obtained emulsion was injected to the tail of each mouse intradermally. After 21 days, Bovine type 2 collagen (Chondrex) and incomplete Freund's adjuvant (Chondrex) are mixed in 1:1 to become an emulsion. Each 0.1 ml of the obtained emulsion was injected to the hips of each mouse intradermally for boosting. After boosting, feet of the mice were observed once a day. When clinical score was occurred, the drug administration and its evaluation were started. The criterion of clinical score was according to Experimental Example 3.
All the results were expressed as mean±SEM, and each test group and the control groups (vehicle-control group or positive control group) were compared using one-way ANOVA test (Dunnett's test, p<0.001) with GrapicPad Prism 5.0 program.

Setting [6] is: Table 11, eleven HDAC isozymes, read-out: Inhibition ability (IC50) against HDAC1.
Setting [7] is: Table 12, read-out: Inhibition ability (IC50) HDAC1.

The term IC50 denotes the point on the concentration scale where inhibition reaches its midpoint.

T2 sequence (Q13547 whole entry): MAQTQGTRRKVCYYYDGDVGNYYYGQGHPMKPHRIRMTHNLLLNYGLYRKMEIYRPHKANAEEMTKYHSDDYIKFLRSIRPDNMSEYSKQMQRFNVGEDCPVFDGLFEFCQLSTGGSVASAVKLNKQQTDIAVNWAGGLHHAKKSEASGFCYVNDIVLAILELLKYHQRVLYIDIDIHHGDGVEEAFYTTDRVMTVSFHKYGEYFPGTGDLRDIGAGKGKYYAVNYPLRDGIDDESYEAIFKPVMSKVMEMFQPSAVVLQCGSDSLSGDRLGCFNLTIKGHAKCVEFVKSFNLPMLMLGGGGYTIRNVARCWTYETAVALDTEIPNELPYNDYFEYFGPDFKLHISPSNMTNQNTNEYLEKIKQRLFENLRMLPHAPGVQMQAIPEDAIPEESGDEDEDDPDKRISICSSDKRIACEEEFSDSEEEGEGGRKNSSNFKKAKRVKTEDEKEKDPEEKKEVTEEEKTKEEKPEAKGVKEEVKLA
Chain of HDAC5 (Q9UQL6 whole entry, species assumed): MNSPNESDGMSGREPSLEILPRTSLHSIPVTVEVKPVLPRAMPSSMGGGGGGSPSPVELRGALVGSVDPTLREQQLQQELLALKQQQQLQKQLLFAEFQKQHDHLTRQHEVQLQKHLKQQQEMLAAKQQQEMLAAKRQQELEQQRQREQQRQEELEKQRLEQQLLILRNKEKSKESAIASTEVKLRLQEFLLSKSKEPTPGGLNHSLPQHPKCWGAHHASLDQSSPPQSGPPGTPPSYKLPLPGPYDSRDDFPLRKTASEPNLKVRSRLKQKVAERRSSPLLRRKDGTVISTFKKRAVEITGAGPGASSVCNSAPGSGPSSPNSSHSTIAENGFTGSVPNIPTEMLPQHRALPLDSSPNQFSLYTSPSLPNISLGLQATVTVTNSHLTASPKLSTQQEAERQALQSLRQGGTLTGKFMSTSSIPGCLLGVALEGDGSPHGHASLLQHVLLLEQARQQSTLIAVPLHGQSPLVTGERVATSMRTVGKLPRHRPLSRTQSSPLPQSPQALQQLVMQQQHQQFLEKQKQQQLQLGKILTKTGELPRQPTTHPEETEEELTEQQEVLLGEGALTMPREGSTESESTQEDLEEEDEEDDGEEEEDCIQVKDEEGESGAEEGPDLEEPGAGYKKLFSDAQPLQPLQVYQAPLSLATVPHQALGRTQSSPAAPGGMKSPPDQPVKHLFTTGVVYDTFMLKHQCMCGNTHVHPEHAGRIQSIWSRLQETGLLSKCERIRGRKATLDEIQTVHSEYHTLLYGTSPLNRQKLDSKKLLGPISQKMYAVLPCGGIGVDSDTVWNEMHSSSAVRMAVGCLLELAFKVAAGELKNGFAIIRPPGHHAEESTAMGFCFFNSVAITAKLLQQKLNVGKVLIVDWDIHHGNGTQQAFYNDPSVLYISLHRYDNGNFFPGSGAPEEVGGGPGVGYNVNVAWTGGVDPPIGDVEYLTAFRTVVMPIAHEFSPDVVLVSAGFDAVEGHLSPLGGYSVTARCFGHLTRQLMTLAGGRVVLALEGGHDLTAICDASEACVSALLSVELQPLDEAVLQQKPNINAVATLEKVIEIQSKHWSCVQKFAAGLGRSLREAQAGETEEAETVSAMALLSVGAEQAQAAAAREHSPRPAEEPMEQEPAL

For the compound `CN1CCN(C(=O)N(CCCCCCC(=O)NO)c2ccc(-c3ccc4cnn(C)c4c3)cc2)CC1` [CKD-581, reference compound], the IC50 is 0.0106 µM in data set [1] (Table 11, eleven HDAC isozymes, read-out: Inhibition ability (IC50) against HDAC7); 0.000673 µM in data set [2] (setting [6]); 0.00109 µM in data set [3]; 0.00266 µM in data set [4].

Take `O=C(NO)c1ccc(Cn2c3c(c4ccccc42)C(=O)N(CCN2CCOCC2)CC3)cc1` [Compound 249, N-hydroxy-4-((2-(2-morpholinoethyl)-1-oxo-1,2,3,4-tetrahydropyrido[4,3-b]indol-5-yl)methyl)benzamide]: the IC50 turned out to be 3.42 µM in data set [1]; 8.47 µM in data set [2] (setting [6]); 3.46 µM in data set [2] (setting [7]); 4.62 µM in data set [3]; 53 µM in data set [4].

In the case of `O=C(NO)c1ccc(Cn2c3c(c4ccccc42)C(=O)C(CN2CCOCC2)CC3)cc1` (stereo not shown) [Compound 87, N-hydroxy-4-((3-(morpholinomethyl)-4-oxo-1,2,3,4-tetrahydrocarbazol-9-yl)methyl)benzamide], the IC50 was determined as 3.28 µM in data set [1]; 3.07 µM in data set [2] (setting [7]); 11.2 µM in data set [2] (data of Table 11, read-out: IC50 against HDAC1); 5.08 µM in data set [3]; 15.3 µM in data set [4]. Besides, the “clinical score decreased, compared with the positive control group” value is recorded as 44% in data set [5] (10 mg/kg s.c. once a day for 7 days) and 68% in data set [5] (50 mpk s.c. once a day for 7 days). In data set [5] (collagen-induced arthritis mice, 10 and 50 mg/kg s.c.), the body-weight loss result is “no observation of body-weight loss”.

With `CC1(C)CC(=O)c2c(C(F)(F)F)nn(Cc3ccc(C(=O)NO)cc3)c2C1` [Compound 237, 4-((6,6-dimethyl-4-oxo-3-(trifluoromethyl)-4,5,6,7-tetrahydro-1H-indazol-1-yl)methyl)-N-hydroxybenzamide], the IC50 in data set [2] (setting [7]) stood at 3.91 µM; in data set [3], 16 µM; in data set [4], 76.1 µM.

For `CN1CCN(CC2CCc3c(c4cc(F)ccc4n3Cc3ccc(C(=O)NO)cc3)C2=O)CC1` (stereo not shown) [Compound 142, 4-((6-fluoro-3-((4-methylpiperazin-1-yl)methyl)-4-oxo-1,2,3,4-tetrahydrocarbazol-9-yl)methyl)-N-hydroxybenzamide], the IC50 worked out at 4.53 µM in data set [1]; 12.2 µM in data set [2] (setting [6]); 2.65 µM in data set [2] (setting [7]); 4.27 µM in data set [3]; 37 µM in data set [4].
